Measurements taken from the supplement of paper PMC13207355.

Tests used:
Details in all cases: exposure time: 72 h
E21 [1] = patient-derived glioblastoma stem cells of mesenchymal subtype; assay: surviving fraction (nuclei count normalised to DMSO); higher = more cells surviving (less toxic)
E28 [2] = patient-derived glioblastoma stem cells of classical subtype; assay: as above
E34 [3] = patient-derived glioblastoma stem cells of proneural subtype; assay: as above
FT3469 [4] = normal neural stem cell line; assay: as above
E13 [5] = patient-derived glioblastoma stem cells of classical subtype; assay: as above
E57 [6] = patient-derived glioblastoma stem cells of mesenchymal subtype; assay: as above
E31 [7] = patient-derived glioblastoma stem cells of proneural subtype; assay: as above
E21 [8] = assay: phenotypic distance (Euclidean, principal components) from DMSO controls (arbitrary units); higher = stronger morphological change
E28 [9] = assay: as above
E34 [10] = assay: as above
FT3469 [11] = assay: as above
E13 [12] = assay: as above
E57 [13] = assay: as above
E31 [14] = assay: as above
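For phenotypic distance (Euclidean, principal components) from DMSO controls in this document: cell Painting imaging in 384-well plates, CellProfiler features reduced to at least 20 principal components, Euclidean distance versus same-plate DMSO vehicle wells (0.1% v/v), median over six images per well.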
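For surviving fraction (nuclei count normalised to DMSO) in this document: nuclei counted by high-content imaging of Hoechst-stained cells in laminin-coated 384-well plates, relative to 0.1% DMSO vehicle wells, with staurosporine as cell-death control.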

NCCNc1ccc(NCCN)c2c1C(=O)c1ccncc1C2=O [Pixantrone dimaleate]
surviving fraction (E21 [1]; 4.1 nM): 0.991
surviving fraction (E21 [1]; 12.3 nM): 0.812
surviving fraction (E21 [1]; 37 nM): 0.904
surviving fraction (E21 [1]; 111.1 nM): 0.733
surviving fraction (E21 [1]; 333.3 nM): 0.619
surviving fraction (E21 [1]; 1000 nM): 0.509
surviving fraction (E21 [1]; 3000 nM): 0.364
surviving fraction (E28 [2]; 4.1 nM): 0.677
surviving fraction (E28 [2]; 12.3 nM): 0.604
surviving fraction (E28 [2]; 37 nM): 0.524
surviving fraction (E28 [2]; 111.1 nM): 0.418
surviving fraction (E28 [2]; 333.3 nM): 0.349
surviving fraction (E28 [2]; 1000 nM): 0.333
surviving fraction (E28 [2]; 3000 nM): 0.216
surviving fraction (E34 [3]; 4.1 nM): 0.839
surviving fraction (E34 [3]; 12.3 nM): 0.771
surviving fraction (E34 [3]; 37 nM): 0.637
surviving fraction (E34 [3]; 111.1 nM): 0.702
surviving fraction (E34 [3]; 333.3 nM): 0.686
surviving fraction (E34 [3]; 1000 nM): 0.588
surviving fraction (E34 [3]; 3000 nM): 0.492
surviving fraction (FT3469 [4]; 4.1 nM): 0.869
surviving fraction (FT3469 [4]; 12.3 nM): 0.795
surviving fraction (FT3469 [4]; 37 nM): 0.763
surviving fraction (FT3469 [4]; 111.1 nM): 0.623
surviving fraction (FT3469 [4]; 333.3 nM): 0.666
surviving fraction (FT3469 [4]; 1000 nM): 0.631
surviving fraction (FT3469 [4]; 3000 nM): 0.565
surviving fraction (E13 [5]; 4.1 nM): 0.883
surviving fraction (E13 [5]; 12.3 nM): 0.94
surviving fraction (E13 [5]; 37 nM): 0.916
surviving fraction (E13 [5]; 111.1 nM): 0.798
surviving fraction (E13 [5]; 333.3 nM): 0.48
surviving fraction (E13 [5]; 1000 nM): 0.399
surviving fraction (E13 [5]; 3000 nM): 0.383
surviving fraction (E57 [6]; 4.1 nM): 0.955
surviving fraction (E57 [6]; 12.3 nM): 0.897
surviving fraction (E57 [6]; 37 nM): 0.79
surviving fraction (E57 [6]; 111.1 nM): 0.555
surviving fraction (E57 [6]; 333.3 nM): 0.346
surviving fraction (E57 [6]; 1000 nM): 0.288
surviving fraction (E57 [6]; 3000 nM): 0.24
surviving fraction (E31 [7]; 4.1 nM): 0.539
surviving fraction (E31 [7]; 12.3 nM): 0.566
surviving fraction (E31 [7]; 37 nM): 0.397
surviving fraction (E31 [7]; 111.1 nM): 0.327
surviving fraction (E31 [7]; 333.3 nM): 0.312
surviving fraction (E31 [7]; 1000 nM): 0.275
surviving fraction (E31 [7]; 3000 nM): 0.142
phenotypic distance (E21 [8]; 4.1 nM): 0.691
phenotypic distance (E21 [8]; 12.3 nM): 0.873
phenotypic distance (E21 [8]; 37 nM): 0.996
phenotypic distance (E21 [8]; 111.1 nM): 2.7
phenotypic distance (E21 [8]; 333.3 nM): 4.95
phenotypic distance (E21 [8]; 1000 nM): 6
phenotypic distance (E21 [8]; 3000 nM): 5.53
phenotypic distance (E28 [9]; 4.1 nM): 2.06
phenotypic distance (E28 [9]; 12.3 nM): 2.09
phenotypic distance (E28 [9]; 37 nM): 2.43
phenotypic distance (E28 [9]; 111.1 nM): 3.32
phenotypic distance (E28 [9]; 333.3 nM): 3.6
phenotypic distance (E28 [9]; 1000 nM): 3.19
phenotypic distance (E28 [9]; 3000 nM): 4.63
phenotypic distance (E34 [10]; 4.1 nM): 0.885
phenotypic distance (E34 [10]; 12.3 nM): 0.947
phenotypic distance (E34 [10]; 37 nM): 1.52
phenotypic distance (E34 [10]; 111.1 nM): 3.49
phenotypic distance (E34 [10]; 333.3 nM): 3.78
phenotypic distance (E34 [10]; 1000 nM): 3.22
phenotypic distance (E34 [10]; 3000 nM): 1.77
phenotypic distance (FT3469 [11]; 4.1 nM): 1.02
phenotypic distance (FT3469 [11]; 12.3 nM): 1.28
phenotypic distance (FT3469 [11]; 37 nM): 1.5
phenotypic distance (FT3469 [11]; 111.1 nM): 2.03
phenotypic distance (FT3469 [11]; 333.3 nM): 1.76
phenotypic distance (FT3469 [11]; 1000 nM): 1.86
phenotypic distance (FT3469 [11]; 3000 nM): 2.37
phenotypic distance (E13 [12]; 4.1 nM): 2.19
phenotypic distance (E13 [12]; 12.3 nM): 0.616
phenotypic distance (E13 [12]; 37 nM): 0.772
phenotypic distance (E13 [12]; 111.1 nM): 1.76
phenotypic distance (E13 [12]; 333.3 nM): 4.4
phenotypic distance (E13 [12]; 1000 nM): 5.24
phenotypic distance (E13 [12]; 3000 nM): 4.99
phenotypic distance (E57 [13]; 4.1 nM): 0.987
phenotypic distance (E57 [13]; 12.3 nM): 0.95
phenotypic distance (E57 [13]; 37 nM): 1.45
phenotypic distance (E57 [13]; 111.1 nM): 3.37
phenotypic distance (E57 [13]; 333.3 nM): 6.17
phenotypic distance (E57 [13]; 1000 nM): 7.83
phenotypic distance (E57 [13]; 3000 nM): 8.45
phenotypic distance (E31 [14]; 4.1 nM): 2.15
phenotypic distance (E31 [14]; 12.3 nM): 1.85
phenotypic distance (E31 [14]; 37 nM): 2.43
phenotypic distance (E31 [14]; 111.1 nM): 3.58
phenotypic distance (E31 [14]; 333.3 nM): 2.86
phenotypic distance (E31 [14]; 1000 nM): 3.07
phenotypic distance (E31 [14]; 3000 nM): 4.34

CC(C)C(=O)OCC(=O)[C@@]12O[C@H](C3CCCCC3)O[C@@H]1C[C@H]1[C@@H]3CCC4=CC(=O)C=C[C@]4(C)[C@H]3[C@@H](O)C[C@@]12C [Ciclesonide]
surviving fraction (E21 [1]; 4.1 nM): 1.24
surviving fraction (E21 [1]; 12.3 nM): 1.23
surviving fraction (E21 [1]; 37 nM): 1.07
surviving fraction (E21 [1]; 111.1 nM): 1.17
surviving fraction (E21 [1]; 333.3 nM): 1.19
surviving fraction (E21 [1]; 1000 nM): 1.24
surviving fraction (E21 [1]; 3000 nM): 0.893
surviving fraction (E28 [2]; 4.1 nM): 1.11
surviving fraction (E28 [2]; 12.3 nM): 1
surviving fraction (E28 [2]; 37 nM): 1.26
surviving fraction (E28 [2]; 111.1 nM): 1.07
surviving fraction (E28 [2]; 333.3 nM): 0.894
surviving fraction (E28 [2]; 1000 nM): 1.05
surviving fraction (E28 [2]; 3000 nM): 0.615
surviving fraction (E34 [3]; 4.1 nM): 1.04
surviving fraction (E34 [3]; 12.3 nM): 0.897
surviving fraction (E34 [3]; 37 nM): 1.13
surviving fraction (E34 [3]; 111.1 nM): 1.02
surviving fraction (E34 [3]; 333.3 nM): 1.08
surviving fraction (E34 [3]; 1000 nM): 1.06
surviving fraction (E34 [3]; 3000 nM): 0.589
surviving fraction (FT3469 [4]; 4.1 nM): 1.1
surviving fraction (FT3469 [4]; 12.3 nM): 1.38
surviving fraction (FT3469 [4]; 37 nM): 1.15
surviving fraction (FT3469 [4]; 111.1 nM): 1.04
surviving fraction (FT3469 [4]; 333.3 nM): 1.03
surviving fraction (FT3469 [4]; 1000 nM): 1.1
surviving fraction (FT3469 [4]; 3000 nM): 0.803
surviving fraction (E13 [5]; 4.1 nM): 0.929
surviving fraction (E13 [5]; 12.3 nM): 0.899
surviving fraction (E13 [5]; 37 nM): 0.833
surviving fraction (E13 [5]; 111.1 nM): 0.908
surviving fraction (E13 [5]; 333.3 nM): 0.889
surviving fraction (E13 [5]; 1000 nM): 0.796
surviving fraction (E13 [5]; 3000 nM): 0.233
surviving fraction (E57 [6]; 4.1 nM): 1.08
surviving fraction (E57 [6]; 12.3 nM): 1.18
surviving fraction (E57 [6]; 37 nM): 1.1
surviving fraction (E57 [6]; 111.1 nM): 1.32
surviving fraction (E57 [6]; 333.3 nM): 1.16
surviving fraction (E57 [6]; 1000 nM): 1.19
surviving fraction (E57 [6]; 3000 nM): 0.756
surviving fraction (E31 [7]; 4.1 nM): 1.24
surviving fraction (E31 [7]; 12.3 nM): 1.11
surviving fraction (E31 [7]; 37 nM): 1.33
surviving fraction (E31 [7]; 111.1 nM): 1.47
surviving fraction (E31 [7]; 333.3 nM): 1.25
surviving fraction (E31 [7]; 1000 nM): 1.27
surviving fraction (E31 [7]; 3000 nM): 0.766
phenotypic distance (E21 [8]; 4.1 nM): 1.83
phenotypic distance (E21 [8]; 12.3 nM): 2.04
phenotypic distance (E21 [8]; 37 nM): 1.74
phenotypic distance (E21 [8]; 111.1 nM): 2.02
phenotypic distance (E21 [8]; 333.3 nM): 2.07
phenotypic distance (E21 [8]; 1000 nM): 1.89
phenotypic distance (E21 [8]; 3000 nM): 2.4
phenotypic distance (E28 [9]; 4.1 nM): 1.16
phenotypic distance (E28 [9]; 12.3 nM): 0.863
phenotypic distance (E28 [9]; 37 nM): 1.07
phenotypic distance (E28 [9]; 111.1 nM): 0.708
phenotypic distance (E28 [9]; 333.3 nM): 1
phenotypic distance (E28 [9]; 1000 nM): 0.827
phenotypic distance (E28 [9]; 3000 nM): 2.3
phenotypic distance (E34 [10]; 4.1 nM): 0.88
phenotypic distance (E34 [10]; 12.3 nM): 0.851
phenotypic distance (E34 [10]; 37 nM): 1.45
phenotypic distance (E34 [10]; 111.1 nM): 1.77
phenotypic distance (E34 [10]; 333.3 nM): 1.12
phenotypic distance (E34 [10]; 1000 nM): 0.771
phenotypic distance (E34 [10]; 3000 nM): 1.4
phenotypic distance (FT3469 [11]; 4.1 nM): 1.45
phenotypic distance (FT3469 [11]; 12.3 nM): 1.86
phenotypic distance (FT3469 [11]; 37 nM): 1.15
phenotypic distance (FT3469 [11]; 111.1 nM): 1.37
phenotypic distance (FT3469 [11]; 333.3 nM): 1.4
phenotypic distance (FT3469 [11]; 1000 nM): 0.997
phenotypic distance (FT3469 [11]; 3000 nM): 0.762
phenotypic distance (E13 [12]; 4.1 nM): 0.991
phenotypic distance (E13 [12]; 12.3 nM): 0.745
phenotypic distance (E13 [12]; 37 nM): 1.05
phenotypic distance (E13 [12]; 111.1 nM): 1.04
phenotypic distance (E13 [12]; 333.3 nM): 0.74
phenotypic distance (E13 [12]; 1000 nM): 1.02
phenotypic distance (E13 [12]; 3000 nM): 3.25
phenotypic distance (E57 [13]; 4.1 nM): 1.77
phenotypic distance (E57 [13]; 12.3 nM): 2.02
phenotypic distance (E57 [13]; 37 nM): 2.36
phenotypic distance (E57 [13]; 111.1 nM): 2.51
phenotypic distance (E57 [13]; 333.3 nM): 2.31
phenotypic distance (E57 [13]; 1000 nM): 2.44
phenotypic distance (E57 [13]; 3000 nM): 2.49
phenotypic distance (E31 [14]; 4.1 nM): 2.4
phenotypic distance (E31 [14]; 12.3 nM): 2.62
phenotypic distance (E31 [14]; 37 nM): 3
phenotypic distance (E31 [14]; 111.1 nM): 3.03
phenotypic distance (E31 [14]; 333.3 nM): 3.06
phenotypic distance (E31 [14]; 1000 nM): 3.27
phenotypic distance (E31 [14]; 3000 nM): 2.27
